Results: US9815851B2, “Pyrrolo carboxamides as modulators of orphan nuclear receptor RAR-related orphan receptor-gamma (RORγ, NR1F3) activity and for the treatment of chronic inflammatory and autoimmune diseases” (PHENEX PHARMACEUTICALS AG, priority 2011, dated 2017)
Read-outs that look alike come from different tables or passages of the source.

Legend:
[1] = molecular target: T1, RORγ ligand binding domain (LBD) (Homo sapiens, UniProt P51449); assay: TR-FRET Activity Assay (ligand sensing, RORγ-LBD / coactivator peptide interaction, LANCE); format: biochemical
T1 construct: made in house; host or cells: E. coli BL-21 (BL3), vector pDEST15
T1 sequence (P51449 269-508 limits assumed): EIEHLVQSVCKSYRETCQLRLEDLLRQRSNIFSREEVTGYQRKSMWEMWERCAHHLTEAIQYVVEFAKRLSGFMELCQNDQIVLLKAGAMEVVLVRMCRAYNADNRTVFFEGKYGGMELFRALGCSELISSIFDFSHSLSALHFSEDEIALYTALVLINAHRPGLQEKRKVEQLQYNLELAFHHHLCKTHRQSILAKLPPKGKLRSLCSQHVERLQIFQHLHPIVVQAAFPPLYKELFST

RORγ = molecular target: T2, RORγ (UniProt P51449); assay: RORγ Gal4 Reporter Gene Assay in 293T cells (firefly and renilla luciferase); format: cell-based, human
T2 sequence (P51449 1-518): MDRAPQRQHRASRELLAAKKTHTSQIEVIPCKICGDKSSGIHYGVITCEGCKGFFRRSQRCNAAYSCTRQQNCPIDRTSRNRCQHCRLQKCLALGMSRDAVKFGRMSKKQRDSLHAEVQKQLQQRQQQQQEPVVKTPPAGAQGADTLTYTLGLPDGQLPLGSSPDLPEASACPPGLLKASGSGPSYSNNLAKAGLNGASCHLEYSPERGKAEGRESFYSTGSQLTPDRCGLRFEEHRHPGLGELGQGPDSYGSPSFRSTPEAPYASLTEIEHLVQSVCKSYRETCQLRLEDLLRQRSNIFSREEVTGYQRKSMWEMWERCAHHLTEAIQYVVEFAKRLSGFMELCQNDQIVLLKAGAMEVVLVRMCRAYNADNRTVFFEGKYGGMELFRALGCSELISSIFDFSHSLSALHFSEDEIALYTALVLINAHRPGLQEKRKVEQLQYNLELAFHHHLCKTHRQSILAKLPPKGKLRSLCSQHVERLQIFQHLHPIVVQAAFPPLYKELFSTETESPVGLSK

[2] = first value of the cell FRET/FF/REN, TR-FRET activity assay, read-out: pIC50 (FRET) (converted)
[3] = second value of the cell, Gal4 reporter gene assay in 293T cells, firefly luciferase
[4] = third value of the cell, Gal4 reporter gene assay in 293T cells, renilla normalised luciferase

Structure (SMILES) | IC50 [1] [nM] | pIC50 (FF) (RORγ) | pIC50 (REN) (RORγ) | IC50 [1, 2] [nM] | pIC50 (FF) (RORγ; [3]) | pIC50 (REN) (RORγ; [4])
Cc1c(C(=O)NC2COC2)cc(-c2cc(C(=O)N(C)C(C)(C)C)cc(C(F)(F)F)c2)n1CC1CCCCC1 [15/1] | 2000 | 5.7/6.6/6.7 | 5.7/6.6/6.7 | – | – | –
Cc1c(C(=O)NC2CCOCC2)cc(-c2cc(C(F)(F)F)cc(C3(C)CC3)c2)n1CC1CCCCC1 [17/297] | – | – | – | 126 | 7.2 | 7.4
CC(C)(C)NS(=O)(=O)c1ccc(-c2cc(C(=O)NCCC(C)(C)C(=O)O)c(F)n2CC2CCCCC2)cc1C(F)(F)F [20/6] | – | – | – | 501 | 6.9 | 6.9
Cc1c(C(=O)NC2CCOCC2)cc(-c2ccc(S(=O)(=O)NC(C)(C)CCO)c(C(F)(F)F)c2)n1CC1CCCCC1 [17/108] | – | – | – | 1000 | 6.9 | 7.1
Cc1c(C(=O)NC2CCS(=O)(=O)C2)cc(-c2cc(C(C)(C)C)c3c(c2)C2(CCO3)CC2)n1CC1CCCCC1 (stereo not drawn) [17/15] | – | – | – | 794 | 7.2 | 7.1
Cc1c(C(N)=O)cc(-c2cc(C(C)(C)C)cc(C(C)(C)C)c2)n1S(=O)(=O)N1CCCCC1 [7/8] | – | – | – | 501 | 6.0 | 6.2
Cc1c(C(=O)NC2CCOCC2)cc(-c2cc(Cl)cc(C(=O)NC(C)(C)C)c2)n1CC1CCCCC1 [17/219] | – | – | – | 501 | 6.9 | 7.0
Cc1c(C(=O)NC2CCOCC2)cc(-c2ccc(S(=O)(=O)NC(C)(C)C)c(C(F)(F)F)n2)n1CC1CCCCC1 [17/245] | – | – | – | > 20000 | 5.7 | 5.7
Cc1c(C(=O)NCC2(C(=O)O)CC2)cc(-c2cc(C(C)(C)C)c3c(c2)C2(CCO3)CC2)n1CC1CCCCC1 [17/51] | – | – | – | 1580 | 6.7 | 6.7
Cc1c(C(=O)NC2CCOCC2)cc(-c2cc(C(F)(F)F)c(S(=O)(=O)NC(C)(C)C)cc2F)n1CC1CCCCC1 [17/230] | – | – | – | 251 | 7.5 | 7.6
Cc1c(C(=O)NC2COC2)cc(-c2cc(C(=O)NC(C)(C)C)cc(C(C)(C)C)c2)n1CC1CCCCC1 [15/5] | 794 | 6.1/7.6/7.7 | 6.1/7.6/7.7 | – | – | –
Cc1c(C(=O)NC[C@@H]2CCCO2)cc(-c2cc(C(C)(C)C)c3c(c2)C2(CCO3)CC2)n1CC1CCCCC1 [17/6] | – | – | – | 251 | 6.4 | 6.5
Cc1c(C(=O)N[C@H]2C[C@H](C(=O)O)C2)cc(-c2cc(C(C)(C)C)nc(C(C)(C)C)c2)n1CC1CCCCC1 [17/262] | 631 | 6.2/7.6/7.8 | 6.2/7.6/7.8 | – | – | –
Cc1c(C(=O)NC2C[S+]([O-])C2)cc(-c2cc(C(C)C)c3c(c2)C(C)(C)N(C(C)C)S3(=O)=O)n1CC1CCCCC1 (stereo not drawn) [2/3] | – | – | – | 1580 | 6.5 | 6.7
Cc1c(C(=O)NC2CCOCC2)cc(-c2cc3c(c(C(C)(C)C)c2)OCCC3F)n1CC1CCCCC1 (stereo not drawn) [18/4] | – | – | – | 794 | 6.3 | 6.5
CC(C)(C)NS(=O)(=O)c1ccc(-c2cc(C(=O)NC3CCOCC3)c(Cl)n2CC2CCCCC2)cc1C(C)(C)C [17/119] | – | – | – | 501 | 7.6 | 7.7
Cc1c(C(=O)NCC(C)(C)O)cc(-c2cc(OC(F)(F)F)cc(C(=O)NC(C)(C)C)c2)n1CC1CCCCC1 [17/349] | – | – | – | 631 | 6.8 | 6.8
Cc1c(C(=O)NC2COC2)cc(-c2cc(C(F)(F)F)c(=O)n(CC(C)(C)C)c2)n1CC1CCCCC1 [9/14] | – | – | – | 7940 | 6.3 | 6.2
Cc1c(C(=O)NCCc2noc(=O)[nH]2)cc(-c2ccc(S(=O)(=O)NC(C)(C)C)c(C(C)(C)C)c2)n1CC1CCCCC1 [17/331] | – | – | – | 1260 | 6.6 | 6.5
Cc1c(C(=O)NC2CCOCC2)cc(-c2cc(C(C)(C)C)c3c(c2)C2(CCO3)CC2)n1CC1CCCCC1 [1/93] | – | – | – | 200 | 7.4 | 7.4
Cc1c(C(=O)NC2CCOCC2)cc(-c2ccc(S(=O)(=O)NCC(F)(F)F)c(C(C)(C)C)c2)n1CC1CCCCC1 [17/101] | – | – | – | 794 | 7.7 | 7.7
Cc1c(C(=O)NCC(C)(C)c2nnn[nH]2)cc(-c2cc(C(C)(C)O)cc(C3(C)CC3)c2)n1CC1CCCCC1 [17/309] | 794 | 6.1/6.7/6.8 | 6.1/6.7/6.8 | – | – | –
Cc1c(C(=O)N[C@H]2C[C@H](C(=O)O)C2)cc(-c2cc(C(F)(F)F)cc(C3(C)CC3)c2)n1CC1CCCCC1 [17/300] | – | – | – | 794 | 7.3 | 7.6
Cc1c(S(=O)(=O)NC(C)(C)C)ccc(-c2cc(C(=O)NCC(C)(C)O)c(C)n2CC2CCCCC2)c1Cl [17/291] | – | – | – | 398 | 7.6 | 7.7
Cc1c(C(=O)NC2COC2)cc(-c2cc(C(C)(C)C)cc(C(C)(C)C)c2)n1S(=O)(=O)N1CCC2(CCCC2)C1 [7/6] | – | – | – | 398 | 6.6 | 6.5
Cc1c(C(=O)NCC(C)(C)O)cc(-c2ccc(S(=O)(=O)NC(C)(C)C)c3ccccc23)n1CC1CCCC(F)C1 (stereo not drawn) [17/370] | – | – | – | 2000 | 7.2 | 7.3
Cc1c(C(=O)NCCC(C)(C)C(=O)O)cc(-c2ccc(-c3ccnn3C(C)C)c(C(C)(C)C)c2)n1CC1CCCCC1 [26/6] | – | – | – | 398 | 7.7 | 7.9
Cc1c(C(=O)NC2COC2)cc(-c2ccc(C(=O)NCC(C)(C)C)c(C(C)(C)C)c2)n1CC1CCCCC1 [1/32] | – | – | – | 1580 | 6.4 | 6.2
Cc1c(C(=O)NC2COC2)cc(-c2cc(CN3CCOCC3)cc(C(C)(C)C)c2)n1CC1CCCCC1 [1/108] | – | – | – | 7940 | 7.2 | 7.3
Cc1c(C(=O)NCC(C)(C)C(=O)O)cc(-c2cc(C(=O)NC(C)(C)C)cc(C(C)(C)C)c2)n1CC1CCCCC1 [17/329] | – | – | – | 2510 | 6.8 | 6.9
